The values below are quoted from earlier work in patent US11154542B2, “Nail lacquer composition containing ciclopirox” (GENUONE SCIENCES INC., priority 2015, dated 2021).

Structures are written as SMILES.

The series concerns fungus. Particulars: laboratory researches.

As for `CCC(C)(C)c1ccc(CC(C)CN2C[C@@H](C)O[C@@H](C)C2)cc1` (some centres unmarked) [amorolfine, Amorolfine], the antifungal activity result is on record as “low antifungal activity” and the “formation of spores that resist antifungal agents” value is given as “effective in reducing the formation of spores”.
